Assay results reported in US20120029036A1, “PHARMACEUTICAL COMPOSITIONS COMPRISING PYRIDYL CYANOGUANIDINE, PROCESS FOR PREPARING THE SAME AND USE THEREOF” (Tianjin Michele Sci-Tech Development Co., Ltd., priority 2009, published 2012).
In brackets after ≈: the same amount, converted by molar mass.

Columns and labels:
[1] = Solubilization of compound 1 with surfactants, solution placed for observation; assay type: physicochemical; settings: 12 hours
Description: 2.5 mg of compound 1 was weighed and dissolved with 0.5 ml of 0.1N hydrochloric acid solution. 5% (V/V) of polysorbate 80 was added in the resultant solution. The pH of the solution was adjusted with 0.1N of sodium hydroxide to such an extent that precipitates were just to generate.
2.5 mg of compound 1 was weighed and dissolved with 0.5 ml of 0.1N hydrochloric acid solution. An amount of 0.1 N sodium hydroxide solution which is equal to that in Example 25 was added. Precipitates produced.
2 mg of compound 1 was weighed and dissolved with 0.5 ml of 0.1N hydrochloric acid solution. 5% (V/V) of polyethylene glycol-12-hydroxy stearate was added in the resultant solution. The pH of the solution was adjusted with 0.1N of sodium hydroxide to such an extent that precipitates were just to generate.
2 mg of compound 1 was weighed and dissolved with 0.5 ml of 0.1N hydrochloric acid solution. The pH was adjusted with an amount of 0.1 N sodium hydroxide solution which is equal to that in Example 27. Precipitates produced.
2 mg of compound 1 was weighed and dissolved with 0.5 ml of 0.1N hydrochloric acid solution. 5% (V/V) of polyoxyethylene castor oil was added in the resultant solution. The pH of the solution was adjusted with 0.1N of sodium hydroxide to such an extent that precipitates were just to generate.
2 mg of compound 1 was weighed and dissolved with 0.5 ml of 0.1N hydrochloric acid solution. The pH was adjusted with an amount of 0.1 N sodium hydroxide solution which is equal to that in Example 29. Precipitates produced.

human tumour cells = settings: nude mice transplanted human tumour cells; cited from earlier work
[2] = tested on: normal human endothelial cells; settings: in vitro; cited from earlier work
[3] = Determination of solubility in hydrochloric acid solution of pH 4.0 (saturated solution, HPLC); assay type: physicochemical; settings: ultrasonic 1 hour; for solubility at 1 h: aqueous buffer, thermodynamic from solid, read-out: Solubilities in hydrochloric acid of pH 4
Description: 1.6 mg of compound 4 was weighed and dissolved in a mixed solution of 1 ml of methanol and 0.5 ml of DMSO to obtain a control solution. 7.66 mg of compound 4 was dissolved in hydrochloric acid solution of pH 4.0 and shaken in an ultrasonic device for 1 hour to prepare a saturated solution. The solubility of compound 4 in hydrochloric acid solution of pH 4.0 was determined by HPLC.
The solubilities of compound 5 to compound 17 in hydrochloric acid solution were determined with the process for determining the solubility in Example 52.

SMILES	Solubilities in hydrochloric acid of pH 4 [3] [mg/ml]	solubility at 1 h [3] [µg/mL]	other results
N#CNC(=Nc1ccncc1)NCCCCCCOc1ccc(Cl)cc1 [compound 1, N-cyano-N′-(6-(p-chlorophenoxy)hexyl)-N″-(4-pyridyl)guanidine]			appearance of solution on standing ([1]; Example 25: 0.1N HCl, 5% (V/V) polysorbate 80, pH adjusted with 0.1N NaOH): solution kept clear for 12 hours; appearance of solution on standing ([1]; Example 26: control without polysorbate 80, same amount of NaOH): precipitates increased during 12 hours; appearance of solution on standing ([1]; Example 27: 0.1N HCl, 5% (V/V) polyethylene glycol-12-hydroxy stearate, pH adjusted with 0.1N NaOH): solution kept clear for 12 hours; appearance of solution on standing ([1]; Example 28: control without polyethylene glycol-12-hydroxy stearate, same amount of NaOH): precipitates increased during 12 hours; appearance of solution on standing ([1]; Example 29: 0.1N HCl, 5% (V/V) polyoxyethylene castor oil, pH adjusted with 0.1N NaOH): solution kept clear for 12 hours; appearance of solution on standing ([1]; Example 30: control without polyoxyethylene castor oil, same amount of NaOH): precipitates increased during 12 hours; antitumour activity (human tumour cells): potent antitumour activity; antiproliferative activity to normal human endothelial cells [2]: significantly lower antiproliferative activity
N#CN=C(NCCCCCCCCCCCCNC(=NC#N)Nc1ccncc1)Nc1ccncc1 [compound 4, 1,12-bis(N′-cyano-N″-4-pyridylguanidine)dodecane]	0.00052		
CC(C)(C)OC(=O)NCCCCCCCCCCCCNC(=Nc1ccncc1)NC#N [compound 5, N-(12-(tert-butoxycarbonylamino)dodecyl)-N′-cyano-N″-(4-pyridyl)guanidine]		0.92 (≈ 2.07 µM)	
N#CNC(=Nc1ccncc1)NCCCCCCOC(=O)c1ccc(Cl)cc1 [compound 6, N-(6-((4-chlorobenzoic acid)ester)hexyl)-N′-cyano-N″-(4-pyridyl)guanidine]	0.00225		
N#CNC(=Nc1ccncc1)NCCCCCCOc1ccc(F)cc1Cl [compound 7]	0.09993		
N#CNC(=Nc1ccncc1)NCCCCCCOc1ccccc1Br [compound 8, N-cyano-N′-(6-(o-bromophenoxy)hexyl)-N″-(4-pyridyl)guanidine]		205 (≈ 494 µM)	
N#CNC(=Nc1ccncc1)NCCCCCCOc1c(Cl)cccc1Cl [compound 9, N-cyano-N′-(6-((2,6-dichlorophenyl)oxo)hexyl)-N″-(4-pyridyl)guanidine]	0.05331		
N#CNC(=Nc1ccncc1)NCCCCCCOc1ccccc1OC(F)(F)F [compound 10]	0.01965		
N#CNC(=Nc1ccncc1)NCCCCCOc1ccccc1Cl [compound 11, N-cyano-N′-(5-(o-chlorophenoxy)pentyl)-N″-(4-pyridyl)guanidine]		2.85 (≈ 7.96 µM)	
N#CNC(=Nc1ccncc1)NCCCCCCCOc1ccccc1Cl [compound 12, N-cyano-N′-(7-(o-chlorophenoxy)heptyl)-N″-(4-pyridyl)guanidine]		3.72 (≈ 9.64 µM)	
N#CNC(=Nc1ccncc1)NCCCCCOc1ccc(Cl)cc1 [compound 13, N-cyano-N′-(5-(p-chlorophenoxy)pentyl)-N″-(4-pyridyl)guanidine]		29.5 (≈ 82.5 µM)	
COc1ccccc1OCCCCCCCCNC(=Nc1ccncc1)NC#N [compound 14, N-cyano-N′-(8-((o-methoxyphenyl)oxo)octyl)-N″-(4-pyridyl)guanidine]	0.1481		
N#CNC(=Nc1ccncc1)NCCCCCOc1ccc(Cl)cc1Cl [compound 15, N-cyano-N′-(5-((2,4-dichlorophenyl)oxo)pentyl)-N″-(4-pyridyl)guanidine]	0.000829		
N#CNC(=Nc1ccncc1)NCCCCCOc1c(Cl)cc(Cl)cc1Cl [compound 16]	0.01753		
N#CNC(=Nc1ccncc1)NCCCCCCOc1c(Cl)cc(Cl)cc1Cl [compound 17, N-cyano-N′-(6-((2,4,6-trichlorophenyl)oxo)hexyl)-N″-(4-pyridyl)guanidine]	0.00669		
